The values below come from patent publication US20150025012A1, “METHODS AND COMPOSITIONS FOR IDENTIFICATION, ASSESSMENT AND TREATMENT OF CANCERS ASSOCIATED WITH HEDGEHOG SIGNALING” (Infinity Pharmaceuticals, Inc., priority 2010, published 2015).

“Also recorded” adds a separate entry of the source.

Test [1] relates to tumor stroma. The test can be described thus: Microvascular density (CD31 IHC) in tumor. Type of test: in vivo. Particulars: after treatment with IPI-926.
A further test relates to hGli-1 mRNA expression. In words: Gli-1 mRNA expression after SHh stimulation in tumor cell lines (qRT-PCR). Type of test: cell-based, human. Particulars: SW872 liposarcoma cell lines; 500 nM IPI-926. The method, then: Several tumor cell lines were tested for Hh pathway responsiveness and for the presence or absence of cilia or vimentin immunofluorescence (IF). Hh pathway responsiveness was evaluated by detecting increases in hGli-1 mRNA expression in response to Sonic Hedgehog stimulation) in a control sample (C), sample treated with Sonic Hedgehog (SHh), and sample treated with SHh and 500 nM of the hedgehog inhibitor IPI-926 (926). Procedures for RNA extraction and RT-PCR detection were performed by standard methods. Briefly, total RNA was extracted from all tumors using a standard RNEASY® Mini Kit (Qiagen). Next, the RNA was converted to cDNA and 50 ng cDNA was used in each reaction/sample for qRT-PCR analysis of the expression of human Gli1. Samples were tested in duplicate. Cilia and Vimentin IF was performed using standard immunofluorescent methods. Cilia were detected on cells using immunofluorescence (IF) with antibodies specific for acetylated-tubulin obtained from Sigma Aldrich. Cells were co-stained with antibodies to the centriole-specific protein pericentrin.
Hh pathway modulation measured after growing cells in low serum and treating with SHh ligand in the presence or absence of IPI-926. Cell lines were cultured under the following conditions. […]
(In general: Real-time PCR tracks product formation cycle by cycle.)

Test [2] deals with subcutaneous L3.6pl tumor model. The test can be described thus: Tumor perfusion by contrast enhanced high frequency ultrasound. It is filed as in vivo, mice. Particulars: IPI-926 orally 40 mg/kg for seven days, compared to vehicle. The procedure:
The L3.6pl tumor cell line was injected subcutaneously and treatment with IPI-926 was initiated. IPI-926 or vehicle was administered orally at 40 mg/kg for seven consecutive days. On the eighth day, animals were subjected to ultrasound image capture and analysis using the Vevo 2100 high frequency ultrasound instrument (Visualsonics) in conjunction with contrast enhancement (microbubbles) during the imaging procedure. Contrast agent was administered by iv administration during the imaging procedure and quantified by measuring echogenic signal derived from the contrast agent over time.

Test [3] has as its system patient derived tumor xenograft models. The test can be described thus: Tumor growth in patient derived tumor xenograft models. Type of test: in vivo, Mice. The source says: Mice received daily treatment of IPI-926, M-F, for 6-10 weeks (n=10-15 per group).
On the technique in general: A xenograft is tissue or cells of one species grown in another, often human tumour cells in immunodeficient mice.

For test [4], the system named is tumor stroma. In words: Uptake of imaging marker Gd-DTPA (DCE-MRI) and fluorescent drug and protein in tumors. It is filed as in vivo. Particulars: IPI-926 treated tumors.
Another test relates to Gli1 mRNA. The test can be described thus: Gli1 mRNA expression in tumor stroma (RT-PCR). Particulars: animals receiving IPI-926 (40 mg/kg) compared to vehicle. Type of test: in vivo, murine. From the text:
In each of these cases, the action of IPI-926 coincides with downregulation of mRNA for Gli1, an important molecule in the Hedgehog signaling pathway, in the tumor stroma of experimental animals receiving IPI-926 (FIG. 12A). The downregulation of Gli1 mRNA can be used as a functional readout for inhibition of Hedgehog signaling. Moreover, in these models, it appears to be the cancer cells that express the ligand of the Hedgehog signaling pathway (FIG. 12B). Thus, without being bound by theory, Applicants believe that the tumor cells express Hedgehog ligand which signals to a tumor associated stromal cell.
RNA for analysis was isolated from cell pellets or tumor tissue using the Ambion RNA 4-PCR isolation kit according to the manufacturer's guidance. Reverse transcription-PCR was performed for human GAPDH, Gli l and SHh and murine GAPDH, Gli1, PECAM and RGS5 using an ABI-7300 system with ABI primer/probes. Relative quantification of the expression data was obtained using the ΔΔCT method as described by Applied Biosystems.

Another test has as its system SHh signaling. The test can be described thus: SHh signaling in pericytic C3H10T1/2 cell cultures (qRT-PCR). It is filed as cell-based, Mouse. Particulars: pericytic C3H10T1/2 cells, SHh plus IPI-926. The method, then: To test this, a model of pericyte cell differentiation, the C3H10T1/2 cells was evaluated. C3H10T1/2 cells were differentiated in vitro into pericytes. C3H10T1/2 cells are believed to be pluripotent mesenchymal cells, which can be induced to differentiate into multiple different cell lineages, including myoblasts, adipocytes, osteoblasts and pericytes (Taylor, et al. (1979) Cell 17(4):771-9). In this case, cells are cultured to confluence and then allowed to differentiate over the course of 5 additional days of culture. At this time, the cells are seen to express high levels of CD13, an established marker of pericytes.
We subsequently explored if SHh signaling was intact in these pericyte cultures. In a typical experiment, confluent C3H10T1/2 cells were allowed to differentiate into pericyte-like cells. After 5 days in culture, SHh with or without IPI-926 were added to the cells in the presence of normal serum. On day 8 of culture, cells were re-fed SHh with or without IPI-926 and shifter to low serum. qRT-PCR analysis was performed on day 9. SHh signaling was detected in these cells as measured by Gli1 mRNA upregulation; the SHh signaling was inhibited by IPI-926 (FIG. 28). Cells were treated on day 8; Gli1 mRNA levels were evaluated in control samples, after SHh addition, after SHh and IPI-926 and cells treated with IPI-926 alone as shown in FIG. 28. […]

Where [5] appears, read: daily treatment M-F for 6-10 weeks, multiple models.

For the compound `CC1=C2C[C@H]3[C@@H](CC[C@@H]4C[C@H](NS(C)(=O)=O)CC[C@@]43C)[C@@H]2CC[C@@]2(C1)O[C@@H]1C[C@H](C)CN[C@H]1[C@H]2C` [IPI-926], the “microvascular density (MVD, CD31 IHC)” value in the test with tumor stroma [1] is “increased”. The “SHh-upregulated Gli-1 mRNA expression” value in the test with hGli-1 mRNA expression is listed as “blocked”. Further, the “time to reach peak contrast” value in test [2] was “decrease; also recorded: change”. In addition, the changes in morphology entry in test [3] (FIGS. 22A-22D micrographs) was “loss of tumor cells and calcification of the chondroid matrix”. In test [3] (setting [5]), the “mean tumor growth inhibition” value was 43% and the “range of tumor growth inhibition” value was 33-52%. In addition, in the test with tumor stroma [4], the “uptake of imaging marker Gd-DTPA and fluorescent drug and protein (doxorubicin, lectin)” value is “increased uptake”. For the same compound, in the test with Gli1 mRNA, the “Gli1 mRNA expression in tumor stroma” value was “inhibition; also recorded: suppression; also recorded: downregulation”. In the test with SHh signaling, the “SHh-induced Gli1 mRNA upregulation” value is “inhibited” and the “SHh-induced downregulation of RGS5 mRNA” value is listed as “reversed”.
